# From patent US20060165739A1, “Alcohol-free microemulsion composition” (Mary Kay Inc., priority 2005, published 2006)
# Like-named read-outs stand apart in the source and are kept apart here.
# Assays:
# Type in all cases: physicochemical
# [1] = Equivalent alkane carbon number (EACN) of co-oils
# Description: (§1) Formulating microemulsions requires the combination of variables that will provide a middle phase microemulsion. Salager et al. (1979) proposed a semi empirical equation that relates the different formulation variables: Ln(S*)=k(EACN)+f(A)−σ+αTΔT Where S* is an optimum salinity, or electrolyte concentration; k is a constant, normally, between 0.1 to 0.17, and EACN is the equivalent alkane carbon number for nonlinear hydrocarbon (e.g. triglycerides). Although preferred salinity concentrations may exist, the inventors contemplate that salinity levels can and will vary. For example, a person of ordinary skill in the art will recognize that salinity levels may vary depending on the desired effects of a given product, protocol, or individual characteristics of a user of the product. For linear hydrocarbon, alkane carbon number (ACN) is applied. The EACN is estimated based on the optimum salinity obtained in the inventors' formulation studies. The higher the optimum salinity, the more the hydrophobicity or EACN of the oil. The effect of alcohol or additives is noted by f(A), σ is a function of the type of the surfactant, α is a constant, and T is the temperature of the system. However, in this study, alcohol is not included and the temperature of the system is constant.
# The EACN of squalene is 24 and isopropyl myristate (IPM) is 13. The EACN for squalane is expected to be close to the value for squalene (˜24).
# [2] = Optimum salinity (S*) of co-oil/sebum oil mixtures in phase behavior studies with the AOT/sorbitan monooleate/hexylglucocide system; details: NaCl
# Procedure: Methods: Phase behavior studies were performed using equal volume of water and oil (or sebum/co-oil mixtures), giving a water/oil ratio (WOR) equal to one. Preliminary studies were conducted to determine preferred formulations and salinity. […] In another non-limiting aspect, a preferred salinity (S*) for this composition was 0.5% NaCl. As noted throughout this document and contemplated by the inventors, these concentrations can be varied. Additionally, the ingredients can also vary. For example, the surfactants, hydrophobic and hydrophilic linkers, co-oils, and hydrotropes that are discussed throughout this document and known to those of ordinary skill in the art can be used with the present invention.
# Stock solutions of AOT, hexylglucocide, and sorbitan monooleate at the selected weight ratio were prepared at different total surfactant/linker concentrations ranging from 14.19% to 56.06% wt. The phase studies were carried out in 16×125 mm flat-bottomed tubes; 2.5 mL surfactant solution was added, followed by the addition of co-oil, then sebum oil. The total volume of co-oil and sebum oil required is equivalent to the amount of water present in the 2.5 mL surfactant solution; this is to keep WOR equal to one. The fraction of sebum oil in the oil mixtures is varied from zero (100% vol. co-oil) to one (100% vol. sebum oil). The prepared samples were gently shaken once a day for 3 days and left to equilibrate at room temperature for 2 weeks. Phase diagrams (fish diagrams) were constructed by plotting the total surfactant/linker concentration as a function of the sebum fraction in oil. The microemulsion phase (Type I, II, III, and IV) were obtained by visual observation. The effect of salinity (0.5%, 1.5%, and 3% wt. NaCl) and co-oil on the phase behavior was investigated.
# as §1
# [3] = Fish diagram phase study: surfactant concentration (C) and sebum fraction in oil (F) where Type IV microemulsion forms; details: co-oil with artificial sebum, WOR=1
# Procedure: Methods: Phase behavior studies were performed using equal volume of water and oil (or sebum/co-oil mixtures), giving a water/oil ratio (WOR) equal to one. Preliminary studies were conducted to determine preferred formulations and salinity. […] In another non-limiting aspect, a preferred salinity (S*) for this composition was 0.5% NaCl. As noted throughout this document and contemplated by the inventors, these concentrations can be varied. Additionally, the ingredients can also vary. For example, the surfactants, hydrophobic and hydrophilic linkers, co-oils, and hydrotropes that are discussed throughout this document and known to those of ordinary skill in the art can be used with the present invention. Stock solutions of AOT, hexylglucocide, and sorbitan monooleate at the selected weight ratio were prepared at different total surfactant/linker concentrations ranging from 14.19% to 56.06% wt. The phase studies were carried out in 16×125 mm flat-bottomed tubes; 2.5 mL surfactant solution was added, followed by the addition of co-oil, then sebum oil. The total volume of co-oil and sebum oil required is equivalent to the amount of water present in the 2.5 mL surfactant solution; this is to keep WOR equal to one. The fraction of sebum oil in the oil mixtures is varied from zero (100% vol. co-oil) to one (100% vol. sebum oil). The prepared samples were gently shaken once a day for 3 days and left to equilibrate at room temperature for 2 weeks. Phase diagrams (fish diagrams) were constructed by plotting the total surfactant/linker concentration as a function of the sebum fraction in oil. The microemulsion phase (Type I, II, III, and IV) were obtained by visual observation. The effect of salinity (0.5%, 1.5%, and 3% wt. NaCl) and co-oil on the phase behavior was investigated. The fish tail is observed in the high concentration regime whereas the fish body appears in the low concentration regime. A surfactant concentration 14.19% wt was studied. As discussed throughout this document, however, the surfactant concentration can be varied. At lower surfactant concentrations, slow phase separation kinetics made it difficult to map out the three phase region. The surfactant concentration and the sebum fraction of oil at which the body and tail of the fish meet are denoted by “C” and “F”, respectively. The concentration C for this system, approximately, is 25% wt. surfactant concentration at the fraction F of 0.4, as summarized in Table 4.
# [4] = oil mixture 20% co-oil / 80% sebum (vol.)
# [5] = oil mixture 40% co-oil / 60% sebum
# [6] = oil mixture 60% co-oil / 40% sebum
# [7] = oil mixture 80% co-oil / 20% sebum
smiles,measurement,setting,value
"CCCCCCCCCCCC(=O)OCC [EL, ethyl laurate]",EACN,[1],< 13
same,EACN,[1]; listed as Ethyllaurate (EL),<13
same,S* (optimum salinity),[2]; 100% co-oil / 0% sebum,1-1.5%
same,S* (optimum salinity),[2]; [4],<0.5%
same,S* (optimum salinity),[2]; [5],<0.5%
same,S* (optimum salinity),[2]; [6],<0.5%
same,S* (optimum salinity),[2]; [7],0.5-0.7%
same,Concentration (C) of surfactant at which Type IV microemulsion forms,[3]; [NaCl] 0.50%,25 % wt.
same,sebum fraction in oil (F) at which Type IV microemulsion forms,[3]; [NaCl] 0.50%,0.4
same,Concentration (C) of surfactant at which Type IV microemulsion forms,[3]; [NaCl] 1.50%,38 % wt.
same,sebum fraction in oil (F) at which Type IV microemulsion forms,[3]; [NaCl] 1.50%,0.02
"CCCCCCCCCCCCCC(=O)OC(C)C [IPM, isopropyl myristate]",EACN,[1],13
same,S* (optimum salinity),[2]; 100% co-oil / 0% sebum,3.5%
same,S* (optimum salinity),[2]; [4],less than 0.5%
same,S* (optimum salinity),"[2]; oil mixture 20% co-oil / 80% sebum (vol.), listed as Isopropyl Myristate (IPM)",<0.5%
same,S* (optimum salinity),[2]; [5],0.5%
same,S* (optimum salinity),[2]; [6],0.8%
same,S* (optimum salinity),[2]; [7],1.5%
same,Concentration (C) of surfactant at which Type IV microemulsion forms,[3]; [NaCl] 0.50%,25 % wt.
same,sebum fraction in oil (F) at which Type IV microemulsion forms,[3]; [NaCl] 0.50%,0.5
same,Concentration (C) of surfactant at which Type IV microemulsion forms,[3]; [NaCl] 1.50%,38 % wt.
same,sebum fraction in oil (F) at which Type IV microemulsion forms,[3]; [NaCl] 1.50%,0.175
"CC(C)CCCC(C)CCCC(C)CCCCC(C)CCCC(C)CCCC(C)C (centres unmarked) [Squalane, 2,6,10,15,19,23-Hexamethyltetracosane]",Concentration (C) of surfactant at which Type IV microemulsion forms,[3]; [NaCl] 0.50%,25 % wt.
same,sebum fraction in oil (F) at which Type IV microemulsion forms,[3]; [NaCl] 0.50%,0.35
same,Concentration (C) of surfactant at which Type IV microemulsion forms,[3]; [NaCl] 1.50%,35 % wt.
same,sebum fraction in oil (F) at which Type IV microemulsion forms,[3]; [NaCl] 1.50%,0.2
same,Concentration (C) of surfactant at which Type IV microemulsion forms,[3]; [NaCl] 3.00%,42 % wt.
same,sebum fraction in oil (F) at which Type IV microemulsion forms,[3]; [NaCl] 3.00%,0.15
CC(C)=CCC/C(C)=C/CC/C(C)=C/CC/C=C(\C)CC/C=C(\C)CCC=C(C)C [Squalene],EACN,[1],24
same,Concentration (C) of surfactant at which Type IV microemulsion forms,[3]; [NaCl] 0.50%,~25 % wt.
same,sebum fraction in oil (F) at which Type IV microemulsion forms,[3]; [NaCl] 0.50%,0.45
same,sebum fraction in oil (F) at which Type IV microemulsion forms,"[3]; [NaCl] 0.50%, listed as squalene",0.4
